What all share (assay type): cell-based
One assay deals with Cav3.2 (Homo sapiens (Human), UniProt O95180). The assay is described as follows: Whole-cell voltage clamp recording, HEK293 cells expressing T-type channel Cav3.2. Conditions: holding potential −100 mV, depolarized to −30 mV for 100 ms, room temperature. How it is done:
(§1) Whole-cell voltage clamp recordings were performed on cultured HEK293 cells expressing T-type channels (encoded by Cav3.1, Cav3.2, or Cav3.3 channels). All experiments were performed at room temperature. Whole-cell currents were recorded using a MultiClamp 700B amplifier and analyzed offline with pCLAMP10.4 software (Molecular Devices, LLC, Sunnyvale Calif., USA). […] Test compounds were usually applied via a rapid solution exchange system with 8 fine polyplastic tubings glued in a holder in parallel and located closely to the recorded cells. The current responses were normalized to the control, percent inhibition was calculated and sigmoidal dose-response curettes we're generated using XLFIT (IDBS, Surrey, UK) or Prism (GraphPad Software, LA Jola, Calif., US) to calculate IC50 values and Hill slopes using the following equation Y=Bottom+(Top−Bottom)/1+10{circumflex over (()}(Log EC50−X)−HillsSlope)). IC50 values are given in micromolar units.

The target of another assay is Cav3.3 (Homo sapiens (Human), UniProt Q9P0X4). Put plainly: Whole-cell voltage clamp recording, HEK293 cells expressing T-type channel Cav3.3. Conditions: holding potential −100 mV, depolarized to −30 mV for 100 ms, room temperature. How it is done:
as §1

Assay [1] has as its system Human Glioma cancer cell line U251. The assay is described as follows: Cell Proliferation Assay by CCK-8 Reagent. The following applies: Homo sapiens, U-251, 72 h, U251 cells, 72 hours incubation, CCK-8, % viability vs vehicle control. As for the experimental part:
Human Glioma cancer cell line U251 was maintained in DMEM (Gibco, Cat #10569-10) supplemented with 10% fetal bovine serum inactivated at 56° C. (Gibco, Cat #10082-147), 100 U/mL penicillin, and 100 μg/mL streptomycin (Gibco, Cat #15140-122) at 37° C. and 1% MEM non-essential amino acid (Sigma, Cat #M7145) in a humid atmosphere containing 5% CO2. The cells were seeded at 2.5×10^3 cells/well in a 96 well plate (BD falcon, Cat #353072) with 200 pt volume/well and kept in 37° C./5% CO2 incubator for 0/N incubation. The seeding density was optimized previously based on growth curve. On the next day, plated cells were incubated with each test compounds at eight different concentrations (100, 50, 25, 12.5, 6.25, 3.125, 1.5 and 0.78) in triplicates. DMSO was used as a Vehicle control and Culture medium was used as blank control for the assay in each plate. The percentage of DMSO was kept uniform across the plate as <1%. The compound treated cells were incubated in 37° C./5% CO2 incubator for 72 hours. After incubation period, […] CCK-8 reagent (Dojindo, Cat #CK04) was added in all the wells and plate was kept in 37° C./5% CO2 incubator for 3 hours. After CCK-8 incubation, absorbance was measured @ 450 nm using Spectrophotometer (BMG, Omega Polar Star). % Viability values at each concentration were calculated with respect to Vehicle control and EC50 values were calculated using graph pad prism software and are shown in Table A.

A further assay addresses Cav3.1 (Homo sapiens (Human), UniProt O43497). Put plainly: Whole-cell voltage clamp recording, HEK293 cells expressing T-type channel Cav3.1. The following applies: holding potential −100 mV, depolarized to −30 mV for 100 ms, room temperature. How it is done:
as §1

Sequence of Cav3.1 (O43497 whole entry): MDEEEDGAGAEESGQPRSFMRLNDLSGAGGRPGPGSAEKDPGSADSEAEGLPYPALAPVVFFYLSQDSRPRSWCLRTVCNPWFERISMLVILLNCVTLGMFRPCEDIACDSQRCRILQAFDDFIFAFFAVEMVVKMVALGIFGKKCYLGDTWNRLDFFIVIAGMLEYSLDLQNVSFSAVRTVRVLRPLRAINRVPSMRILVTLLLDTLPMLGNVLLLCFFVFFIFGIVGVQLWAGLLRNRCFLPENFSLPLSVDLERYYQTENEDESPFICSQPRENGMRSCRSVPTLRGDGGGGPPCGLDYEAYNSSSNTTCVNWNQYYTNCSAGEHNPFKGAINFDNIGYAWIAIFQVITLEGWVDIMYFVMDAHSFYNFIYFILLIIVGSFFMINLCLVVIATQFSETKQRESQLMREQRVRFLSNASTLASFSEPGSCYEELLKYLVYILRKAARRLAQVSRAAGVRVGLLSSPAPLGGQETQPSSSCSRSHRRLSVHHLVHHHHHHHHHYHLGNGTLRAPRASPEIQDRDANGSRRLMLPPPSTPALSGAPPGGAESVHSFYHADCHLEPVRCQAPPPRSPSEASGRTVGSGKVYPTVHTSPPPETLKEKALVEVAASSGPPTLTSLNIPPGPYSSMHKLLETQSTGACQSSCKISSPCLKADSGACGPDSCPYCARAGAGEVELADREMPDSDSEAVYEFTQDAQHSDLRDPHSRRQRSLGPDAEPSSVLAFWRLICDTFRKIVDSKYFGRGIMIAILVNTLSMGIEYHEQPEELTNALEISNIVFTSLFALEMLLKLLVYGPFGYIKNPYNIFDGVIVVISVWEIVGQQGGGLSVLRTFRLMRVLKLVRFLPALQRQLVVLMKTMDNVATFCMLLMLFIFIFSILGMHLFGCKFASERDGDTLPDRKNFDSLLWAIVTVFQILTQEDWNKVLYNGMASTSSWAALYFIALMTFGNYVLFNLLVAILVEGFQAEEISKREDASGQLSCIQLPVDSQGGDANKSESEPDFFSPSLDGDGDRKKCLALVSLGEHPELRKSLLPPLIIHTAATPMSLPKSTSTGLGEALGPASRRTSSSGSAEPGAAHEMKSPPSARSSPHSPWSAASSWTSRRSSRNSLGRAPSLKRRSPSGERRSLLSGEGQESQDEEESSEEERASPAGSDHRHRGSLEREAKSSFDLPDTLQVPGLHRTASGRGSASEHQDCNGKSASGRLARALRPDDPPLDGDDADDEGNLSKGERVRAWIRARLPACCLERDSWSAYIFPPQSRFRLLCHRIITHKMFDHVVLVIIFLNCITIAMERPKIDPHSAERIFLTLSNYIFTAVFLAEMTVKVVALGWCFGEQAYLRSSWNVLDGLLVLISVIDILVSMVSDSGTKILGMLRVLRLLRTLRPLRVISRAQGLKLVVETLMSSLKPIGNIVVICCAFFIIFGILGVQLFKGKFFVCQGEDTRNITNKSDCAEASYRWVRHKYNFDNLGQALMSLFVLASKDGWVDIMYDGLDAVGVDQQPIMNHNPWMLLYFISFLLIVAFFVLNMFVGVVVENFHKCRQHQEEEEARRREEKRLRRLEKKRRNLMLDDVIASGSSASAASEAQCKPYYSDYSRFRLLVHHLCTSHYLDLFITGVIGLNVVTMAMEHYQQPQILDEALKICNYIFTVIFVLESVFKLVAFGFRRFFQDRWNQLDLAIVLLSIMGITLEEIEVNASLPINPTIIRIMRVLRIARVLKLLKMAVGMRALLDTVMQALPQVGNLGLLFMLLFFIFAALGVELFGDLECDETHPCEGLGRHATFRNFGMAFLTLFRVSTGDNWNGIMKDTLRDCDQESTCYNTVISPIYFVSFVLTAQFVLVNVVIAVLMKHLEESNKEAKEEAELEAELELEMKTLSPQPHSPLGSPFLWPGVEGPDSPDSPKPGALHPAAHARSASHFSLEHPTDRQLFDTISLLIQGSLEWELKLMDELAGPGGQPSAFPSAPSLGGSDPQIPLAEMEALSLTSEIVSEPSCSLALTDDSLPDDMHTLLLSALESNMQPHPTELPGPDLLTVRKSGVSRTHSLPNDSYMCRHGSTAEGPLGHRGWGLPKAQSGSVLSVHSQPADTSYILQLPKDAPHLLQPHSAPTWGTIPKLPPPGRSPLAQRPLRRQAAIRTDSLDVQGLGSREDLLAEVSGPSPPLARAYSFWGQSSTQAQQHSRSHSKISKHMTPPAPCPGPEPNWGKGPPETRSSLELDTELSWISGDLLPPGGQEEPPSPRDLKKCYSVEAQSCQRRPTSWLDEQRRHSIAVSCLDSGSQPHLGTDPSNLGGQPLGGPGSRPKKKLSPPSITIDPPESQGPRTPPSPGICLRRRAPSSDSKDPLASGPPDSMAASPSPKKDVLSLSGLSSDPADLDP
Sequence of Cav3.3 (Q9P0X4 whole entry, species assumed): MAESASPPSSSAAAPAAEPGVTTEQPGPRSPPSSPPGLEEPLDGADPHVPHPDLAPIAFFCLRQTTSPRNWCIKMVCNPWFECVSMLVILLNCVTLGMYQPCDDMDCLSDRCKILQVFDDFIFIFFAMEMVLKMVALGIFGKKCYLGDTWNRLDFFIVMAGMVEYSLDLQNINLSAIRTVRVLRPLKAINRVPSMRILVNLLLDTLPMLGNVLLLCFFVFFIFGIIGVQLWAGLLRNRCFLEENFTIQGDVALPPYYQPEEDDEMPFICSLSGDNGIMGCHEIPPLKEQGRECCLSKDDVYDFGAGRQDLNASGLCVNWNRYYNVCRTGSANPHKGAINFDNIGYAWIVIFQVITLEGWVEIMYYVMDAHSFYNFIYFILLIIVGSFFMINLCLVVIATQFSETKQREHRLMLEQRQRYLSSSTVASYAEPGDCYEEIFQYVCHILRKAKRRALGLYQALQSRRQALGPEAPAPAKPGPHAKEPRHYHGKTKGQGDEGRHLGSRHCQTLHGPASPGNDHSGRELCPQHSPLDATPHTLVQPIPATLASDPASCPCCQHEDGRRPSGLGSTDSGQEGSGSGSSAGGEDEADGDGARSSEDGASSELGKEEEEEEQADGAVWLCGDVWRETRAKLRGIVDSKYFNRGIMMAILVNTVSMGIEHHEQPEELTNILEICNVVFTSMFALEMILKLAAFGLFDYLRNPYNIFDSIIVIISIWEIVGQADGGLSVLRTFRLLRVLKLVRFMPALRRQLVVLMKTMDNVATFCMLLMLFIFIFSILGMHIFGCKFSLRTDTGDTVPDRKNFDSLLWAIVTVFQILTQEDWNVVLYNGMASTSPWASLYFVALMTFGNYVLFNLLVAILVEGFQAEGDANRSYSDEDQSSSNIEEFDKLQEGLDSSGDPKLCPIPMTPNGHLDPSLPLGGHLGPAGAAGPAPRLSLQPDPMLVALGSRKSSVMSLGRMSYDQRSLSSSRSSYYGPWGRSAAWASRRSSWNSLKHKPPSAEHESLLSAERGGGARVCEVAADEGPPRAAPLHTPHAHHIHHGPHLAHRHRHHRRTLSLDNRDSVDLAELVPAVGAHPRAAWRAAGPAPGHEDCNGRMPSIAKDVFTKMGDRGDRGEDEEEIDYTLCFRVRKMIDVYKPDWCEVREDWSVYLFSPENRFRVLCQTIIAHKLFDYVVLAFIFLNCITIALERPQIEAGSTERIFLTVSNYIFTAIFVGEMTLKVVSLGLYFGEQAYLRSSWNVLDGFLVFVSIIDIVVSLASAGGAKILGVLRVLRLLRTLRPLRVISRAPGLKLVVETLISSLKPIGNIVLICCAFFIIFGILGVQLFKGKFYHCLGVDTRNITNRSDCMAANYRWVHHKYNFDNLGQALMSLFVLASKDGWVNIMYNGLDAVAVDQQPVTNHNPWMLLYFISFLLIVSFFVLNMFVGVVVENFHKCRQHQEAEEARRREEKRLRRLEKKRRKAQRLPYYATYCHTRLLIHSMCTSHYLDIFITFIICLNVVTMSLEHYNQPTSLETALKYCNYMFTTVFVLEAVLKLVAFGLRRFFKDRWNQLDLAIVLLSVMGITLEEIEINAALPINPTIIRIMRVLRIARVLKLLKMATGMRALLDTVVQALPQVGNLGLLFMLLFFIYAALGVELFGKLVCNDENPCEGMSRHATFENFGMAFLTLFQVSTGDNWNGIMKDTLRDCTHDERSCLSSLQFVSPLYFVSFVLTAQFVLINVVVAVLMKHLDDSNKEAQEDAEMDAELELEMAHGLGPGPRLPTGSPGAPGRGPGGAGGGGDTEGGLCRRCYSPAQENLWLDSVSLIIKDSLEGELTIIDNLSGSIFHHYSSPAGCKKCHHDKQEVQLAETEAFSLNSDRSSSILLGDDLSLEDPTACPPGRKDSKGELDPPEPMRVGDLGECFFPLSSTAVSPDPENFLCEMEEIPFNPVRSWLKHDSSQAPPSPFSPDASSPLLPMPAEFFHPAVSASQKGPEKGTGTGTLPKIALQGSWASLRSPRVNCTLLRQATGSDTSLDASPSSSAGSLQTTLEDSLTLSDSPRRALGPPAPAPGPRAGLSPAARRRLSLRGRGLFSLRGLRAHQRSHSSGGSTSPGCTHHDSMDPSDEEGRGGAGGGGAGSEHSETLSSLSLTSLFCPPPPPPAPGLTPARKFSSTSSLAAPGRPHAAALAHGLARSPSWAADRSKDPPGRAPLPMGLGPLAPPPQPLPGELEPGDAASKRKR

One may read the IC50 as the concentration at which inhibition is half-maximal. High values mean weaker potency in that assay, low ones greater potency in that assay. As a reminder, the EC50 is the midpoint of the concentration-response curve. A lower EC50 goes with higher potency in that assay. With `Cc1ccc(C)c2[nH]c(CCCN(C)CC[C@@]3(OC(=O)N4CCOCC4)CCc4cc(F)ccc4[C@@H]3C(C)C)nc12` [Example 15, (1S,2S)-2-(2-((3-(4,7-Dimethyl-1H-benzo[d]imidazol-2-yl)propyl)(methyl)amino)ethyl)-6-fluoro-1-isopropyl-1,2,3,4-tetrahydronaphthalen-2-yl morpholine-4-carboxylate], the 50% inhibitory concentration (IC50) is 335 nM against Cav3.2, 212 nM against Cav3.3 and 139 nM against Cav3.1. Also, the EC50 in assay [1] turned out to be 4.8 µM.

Values taken from patent US11130750B2, “Calcium channel inhibitors” (Cavion, Inc., priority 2017, dated 2021).
